Measured values: ChEMBL document CHEMBL5104114, “Synthesis and medicinal chemistry of tetronamides: Promising agrochemicals and antitumoral compounds” (Bioorg Med Chem, 2022)
Converted amounts (≈) assume the structure as drawn.

Legend:
P388 = assay: Cytotoxicity against mouse P388 cells measured after 48 hrs by MTT assay; format: functional, cell-based; conditions: P388, 48 h
[1] = test system: Mycobacterium tuberculosis; assay: Antibacterial activity against Mycobacterium tuberculosis ATCC 27294 by REMA; format: functional
Porphyromonas gingivalis = assay: Antibacterial activity against Porphyromonas gingivalis ATCC 33277 by REMA; format: functional
A549 = assay: Antiproliferative activity against human A549 cells assessed as inhibition of cell growth at 100 uM by MTT assay relative to control; format: functional
[2] = Inhibition of mitochondrial complex III (unknown origin); design: species or system Homo sapiens
Synechococcus elongatus = assay: Antibacterial activity against Synechococcus elongatus PCC 6301 by plate reader method; format: functional, organism-based
Klebsiella pneumoniae = assay: Antibacterial activity against Klebsiella pneumoniae patient isolate; format: functional
Escherichia coli [3] = assay: Antibacterial activity against Escherichia coli ATCC 25922; format: functional
Pseudomonas aeruginosa = assay: Antibacterial activity against Pseudomonas aeruginosa; format: functional
[4] = Toxicity in Myzus persicae assessed as mortality relative to control
[5] = Reversal of heartbeat inhibition in embryonic chicken cardiac cells; format: functional, cell-based, Gallus gallus; conditions: cardiac muscle cell
[6] = Inhibition of serotonin induced dermal vascular permeability in Sprague-Dawley rat blood vessels at 100 mg/kg, ip measured after 5 mins relative to control; format: functional; conditions: Blood vessel
[7] = Inhibition of bradykinin induced dermal vascular permeability in Sprague-Dawley rat blood vessels at 100 mg/kg, ip measured after 5 mins relative to control; format: functional; conditions: Blood vessel
[8] = Inhibition of histamine induced dermal vascular permeability in Sprague-Dawley rat blood vessels at 100 mg/kg, ip measured after 5 mins relative to control; format: functional; conditions: Blood vessel
SMMC-7721 = assay: Antiproliferative activity against human […] cells measured after 24 hrs by MTT assay; format: functional, cell-based; conditions: SMMC-7721, 24 h
DU-145 = assay: Antiproliferative activity against human DU-145 cells measured after 48 hrs by MTT assay; format: cell-based; conditions: DU-145, 48 h
HCT-116 = assay: Antiproliferative activity against human HCT-116 cells measured after 48 hrs by MTT assay; format: cell-based; conditions: HCT-116, 48 h
[9] = Cytotoxicity against human L02 cells measured after 24 hrs by MTT assay; format: toxicity, cell-based
MCF7 = assay: Antiproliferative activity against human MCF7 cells measured after 48 hrs by MTT assay; format: cell-based; conditions: MCF7, 48 h
[10] = Toxicity in Nilaparvata lugens assessed as mortality at 20 mg/L relative to control; conditions: at 20 µg/mL
[11] = Toxicity in Aphis craccivora assessed as mortality at 20 mg/L relative to control; conditions: at 20 µg/mL
Leishmania amazonensis = assay: Antileishmanial activity against Leishmania amazonensis incubated for 24 hrs; format: functional, organism-based
[12] = Toxicity in Myzus persicae assessed as mortality at 0.80 mg/L relative to control; conditions: at 0.8 µg/mL, dose 0.8 mg/L
[13] = Inhibition of RNA in mouse L1210 cells; format: cell-based
Streptomyces sp. = assay: Antibacterial activity against Streptomyces sp. ATCC 23836; format: functional
Brevibacillus brevis = assay: Antibacterial activity against Bacillus brevis; format: functional
Vibrio anguillarum = assay: Antibacterial activity against Vibrio anguillarum NCMB6; format: functional
[14] = Toxicity in mouse engrafted with mouse L1210 cells assessed as lethal dose measured per […]; format: cell-based
Aeromonas salmonicida = assay: Antimicrobial activity against Aeromonas salmonicida ATCC 14174; format: functional
Botrytis cinerea = assay: […] activity against Botrytis cinerea; format: functional
[15] = Inhibition of DNA in mouse L1210 cells; format: cell-based
[16] = Toxicity in Spodoptera littoralis larvae; design: species or system Larva
[17] = biological target: ATP-sensitive inward rectifier potassium channel 1 (Homo sapiens, UniProt P48048); assay: Inhibition of ROMK (unknown origin) by Thallium Efflux assay
Staphylococcus aureus = assay: Antibacterial activity against Staphylococcus aureus; format: functional
Escherichia coli [18] = assay: Antibacterial activity against Escherichia coli; format: functional
[19] = Toxicity in Aphis gossypii assessed as mortality at 4 mg/L relative to control; conditions: at 4 µg/mL
[20] = Toxicity in Nilaparvata lugens assessed as mortality at 100 mg/ml relative to control; design: dose or concentration left out as unconfirmed
[21] = Toxicity in Aphis craccivora assessed as mortality at 100 mg/ml relative to control; design: dose or concentration left out as unconfirmed
[22] = Toxicity in Anopheles darlingi larvae measured after 48 hrs; design: species or system Larva
[23] = Toxicity in Myzus persicae assessed as mortality at 20 mg/L relative to control; conditions: at 20 µg/mL

Chain of ATP-sensitive inward rectifier potassium channel 1 (P48048 whole entry): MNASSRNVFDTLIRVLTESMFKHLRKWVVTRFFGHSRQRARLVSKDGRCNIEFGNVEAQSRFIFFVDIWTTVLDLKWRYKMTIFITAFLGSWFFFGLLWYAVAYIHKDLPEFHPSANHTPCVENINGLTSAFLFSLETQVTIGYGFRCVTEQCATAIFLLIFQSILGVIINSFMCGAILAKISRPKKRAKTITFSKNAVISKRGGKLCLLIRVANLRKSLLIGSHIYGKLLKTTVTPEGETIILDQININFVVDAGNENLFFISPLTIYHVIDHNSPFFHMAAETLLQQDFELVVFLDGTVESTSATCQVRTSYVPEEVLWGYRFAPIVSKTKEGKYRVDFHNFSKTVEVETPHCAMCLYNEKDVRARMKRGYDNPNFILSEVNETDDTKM

SMILES: COc1cc(C2C3=C(COC3=O)Nc3cc4c(cc32)OCO4)cc(OC)c1OC (stereo unspecified)
- IC50 (P388): 4.53 µM

SMILES: COc1cc(C2C3=C(COC3=O)Nc3cc4c(cc32)OCO4)c([N+](=O)[O-])cc1OC (stereo unspecified)
- MIC50 [1]: 250 mg/L (≈ 606 µM)
- MIC50 (Porphyromonas gingivalis): 25 mg/L (≈ 60.6 µM)

SMILES: CCOC(=O)[C@H](Cc1ccccc1)NC1=C(Cl)C(=O)O[C@@H]1O[C@@H]1C[C@H](C)CC[C@H]1C(C)C
- inhibition at 100 µM (A549): 91.8%

SMILES: CCCCCC[C@H](O)CCC[C@H](O)[C@H]1CC[C@H]([C@H]2CC[C@H]([C@H](O)CCCCCCCCCCCCC3=C(N)[C@H](C)OC3=O)O2)O1
- IC50 [2]: 0.04 µM

SMILES: O=C1O[C@@H]([C@H](O)c2ccc(-c3ccccc3)cc2)C(Nc2ccc(Br)cc2)=C1Cl
- IC50 (Synechococcus elongatus): 1.3 µM

SMILES: COC1OC(=O)C(Br)=C1n1cnc2cc(C)c(C)cc21 (stereo unspecified)
- MIC50 (Klebsiella pneumoniae): 16 mg/L (≈ 47.5 µM)
- MIC50 (Escherichia coli [3]): 2 mg/L (≈ 5.93 µM)
- MIC50 (Pseudomonas aeruginosa): 8 mg/L (≈ 23.7 µM)

SMILES: N#CC1(c2cncc(Cl)c2)CC2CCC(C1)N2CC(F)F (stereo unspecified)
- Activity [4]: > 80%

SMILES: CCOC(=O)C1C(C)NC2=C(C(=O)OC2)C1c1ccccc1OC(F)F (stereo unspecified)
- EC50 [5]: 0.06 µM

SMILES: CCN(CC)C1=C(Cl)C(=O)OC1OC (stereo unspecified)
- inhibition at 100 µM (A549): 80.5%

SMILES: Cc1ccc(NC2=C(Cl)C(=O)O[C@H]2[C@H](O)c2ccc(-c3ccccc3)cc2)cc1
- IC50 (Synechococcus elongatus): 4.4 µM

SMILES: CC[C@H](C)[C@H](NC1=C(Br)C(=O)O[C@@H]1O[C@@H]1C[C@H](C)CC[C@H]1C(C)C)C(=O)OC
- inhibition at 100 µM (A549): 97.2%

SMILES: O=C(N[C@H]1C[C@@H]1c1ccccc1)C1=C(Nc2ccc(Cl)cc2)COC1=O
- inhibition in vivo at 100 mg/kg [6]: 94%
- inhibition in vivo at 100 mg/kg [7]: 100%
- inhibition in vivo at 100 mg/kg [8]: 92%

SMILES: COC1OC(=O)C(Cl)=C1N1CCN(CCCCCC[C@H]2CN([C@@H]3OC4O[C@]5(C)CC[C@H]6[C@H](C)CC[C@@H]([C@H]3C)[C@@]46OO5)CCS2(=O)=O)CC1 (stereo partly specified)
- IC50 (SMMC-7721): 0.03 µM
- IC50 (DU-145): 0.02 µM
- IC50 (HCT-116): 0.01 µM
- IC50 at 24 h [9]: 70 µM
- IC50 (MCF7): 0.01 µM

SMILES: CN(Cc1ccc(Cl)nc1)C1=C(Br)C(=O)OC1OCCF (stereo unspecified)
- Activity [10]: 92%
- Activity [11]: 100%

SMILES: COc1cc2c(c(OC)c1OC)C(c1ccc(C(F)(F)F)cc1)C1=C(COC1=O)N2 (stereo unspecified)
- IC50 (Leishmania amazonensis): 6.22 µM

SMILES: NCCN(Cc1ccc(Cl)nc1)C1=CC(=O)OC1
- Activity [12]: 100%

SMILES: NC1=CC(=O)O/C1=C/C=O
- IC50 [13]: 0.6 mg/L (≈ 4.31 µM)
- MIC50 (Streptomyces sp.): 100 mg/L (≈ 719 µM)
- MIC50 (Brevibacillus brevis): 50 mg/L (≈ 359 µM)
- MIC50 (Vibrio anguillarum): 100 mg/L (≈ 719 µM)
- LC50 [14]: 6.25 mg
- MIC50 (Aeromonas salmonicida): 100 mg/L (≈ 719 µM)
- MIC50 (Botrytis cinerea): 100 mg/L (≈ 719 µM)
- IC50 [15]: 0.4 mg/L (≈ 2.88 µM)

SMILES: CCCC[C@@]12[C@@H]3C[C@H]4[C@H]5[C@H](C)/C(=C6/OC(=O)C(C)=C6OC)O[C@]5(O3)[C@@H]1CCN42
- LC50 [16]: 2 mg/L (≈ 5.16 µM)

SMILES: Cc1c([C@H](O)CN2CCC3(CC2)CCN(C2=C(F)C(=O)OC2)CC3)ccc2c1COC2=O
- IC50 [17]: 0.007 µM

SMILES: O=C1OC2C(=C1Cl)N2Cc1ccccc1 (stereo unspecified)
- MIC50 (Pseudomonas aeruginosa): 16 mg/L (≈ 72.2 µM)
- MIC50 (Staphylococcus aureus): 4 mg/L (≈ 18 µM)
- MIC50 (Escherichia coli [18]): 8 mg/L (≈ 36.1 µM)

SMILES: O=C1C=C(N(Cc2ccc(Cl)nc2)CC(F)F)CO1
- Activity [19]: 98%
- Activity [20]: 100%
- Activity [12]: 100%
- Activity [21]: 90%
- LC50 [22]: 1.18 mg/L (≈ 4.09 µM)

SMILES: O=C1C=C(N(CCF)Cc2cnc(Cl)c(Cl)c2)CO1
- Activity [23]: 100%

SMILES: COc1cc([C@@H]2c3cc4c(cc3[C@H](O)[C@H]3COC(=O)[C@H]23)OCO4)cc(OC)c1OC [PODOFILOX]
- IC50 (P388): 10.4 µM
